From patent US8569380B2, “Oligomer-tricyclic conjugates” (Nektar Therapeutics, priority 2007, dated 2013)
Values joined by “and” are separate entries in the source; they are usually repeats but may differ in a detail not shown here. Identical values can stand only once. Like-named read-outs stand apart in the source and are kept apart here.

Legend:
[1] = target: T1, recombinant human H1 histamine receptor (Homo sapiens, UniProt P35367); test: Histamine receptor radioligand binding assay, H1; details: for H1:H2 Selectivity: H2 Ki versus H1 Ki; for H1 Receptor Fold-change over parent: Ki relative to amitriptyline; for Ki: [3H]-Pyrilamine 1.2 nM, CHO membranes
T1 construct: expressed in transfected cells; host or cells: CHO cells (membranes)
Method: (§1) Competition binding experiments were conducted by incubating membranes with a fixed concentration of radioligand in the presence of variable concentrations of test compounds. The radioligands used were specific for each receptor subtype and the assay conditions are described in Table 2. Following incubations, the membranes were washed and the bound radioactivity was measured. Non-specific binding was measured in the presence of excess unlabelled ligand; this value was subtracted from the total binding yielding the specific binding at each test compound concentration.
(§2) Ki was obtained using the Cheng Prusoff correction using experimental Kd values that were previously determined under the same assay conditions.

[2] = target: T2, recombinant human H2 histamine receptor (Homo sapiens, UniProt P25021); test: Histamine receptor radioligand binding assay, H2; details: for H2 Receptor Fold-change over parent: Ki relative to amitriptyline; for Ki: [125I]-Aminopotentidine 0.1 nM, CHO membranes
T2 construct: expressed in transfected cells; host or cells: CHO cells (membranes)
Method: as §1, §2

[3] = pKa and LogP determinations; assay type: physicochemical
[4] = target: T3, noradrenalin transporters (rat forebrain membranes) (Rattus norvegicus, UniProt Q9WTR4); test: Noradrenalin transporter binding assay; details: for Ki: [3H]-nisoxetine 1.0 nM, rat forebrain membranes, read-out: Ki, binding affinity to noradrenalin transporters
T3 construct: membranes prepared from rat forebrain which express noradrenalin transporters; from tissue; host or cells: rat forebrain membranes
Method: Competition binding experiments were conducted by incubating membranes with 1.0 nM of radioligand, [^3H]-nisoxetine, in the presence of variable concentrations (0.1 nM to 3 μM and 3 nM to 100 μM for parent and PEG conjugates, respectively) of test compounds. The reaction was carried out in 50 mM Tris-HCl (pH 7.4), 300 mM NaCl, 5 mM KCl at 0-4° C. for 4 hours. Following incubations, the membranes were washed, and the bound radioactivity was measured.
Ki was obtained using the Cheng Prusoff correction using experimental Kd values that were previously determined under these assay conditions.

[5] = test system: sodium channels (neuronal INa) in isolated rat dorsal root ganglion cells; test: Sodium channel assay, whole-cell patch clamp, neuronal INa; assay type: cell-based; details: for IC50: approximate, >50% inhibition not obtained at highest concentration
[6] = target: sodium channels (cardiac INa) in isolated human atrial myocytes (Homo sapiens, UniProt Q14524); test: Sodium channel assay, whole-cell patch clamp, cardiac INa; assay type: cell-based; details: for IC50: approximate, >50% inhibition not obtained at highest concentration
[7] = target: T4, recombinant human M1 muscarinic acetylcholine receptor (Homo sapiens, UniProt P11229); test: Muscarinic receptor binding assay, M1; details: 3H-N-Methylscopolamine 0.8 nM, CHO membranes
T4 construct: expressed in transfected cells; host or cells: CHO cells (membranes)
T4 sequence (P11229 1-460): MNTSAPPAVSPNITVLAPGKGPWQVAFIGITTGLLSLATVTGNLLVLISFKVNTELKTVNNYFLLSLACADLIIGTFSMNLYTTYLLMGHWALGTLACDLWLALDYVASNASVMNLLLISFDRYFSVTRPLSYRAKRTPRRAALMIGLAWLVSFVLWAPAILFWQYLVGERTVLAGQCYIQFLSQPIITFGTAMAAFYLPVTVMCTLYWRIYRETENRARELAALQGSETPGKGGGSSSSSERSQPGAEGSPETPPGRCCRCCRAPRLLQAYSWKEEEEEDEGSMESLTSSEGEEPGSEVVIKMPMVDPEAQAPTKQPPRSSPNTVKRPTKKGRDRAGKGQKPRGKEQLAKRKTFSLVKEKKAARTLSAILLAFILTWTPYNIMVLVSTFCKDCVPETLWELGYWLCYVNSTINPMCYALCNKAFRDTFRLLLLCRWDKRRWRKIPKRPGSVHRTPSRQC
Method: (§3) Competition binding experiments were conducted by incubating membranes with a fixed concentration of radioligand in the presence of variable concentrations of test compounds. ^3H—N-Methylscopolamine at 0.8 nM was used as the radioligand for all receptor subtypes. Incubations were carried out for 2 hours at 25° C. in buffer containing 50 mM Tris HCl, 10 mM MgCl2 and 1 mM EDTA. Following incubations, the membranes were washed the bound radioactivity was measured. […] Ki was obtained using the Cheng Prusoff correction using Kd values that were experimental determined previously under these assay conditions.

[8] = target: T5, recombinant human M2 muscarinic acetylcholine receptor (Homo sapiens, UniProt P08172); test: Muscarinic receptor binding assay, M2; details: 3H-N-Methylscopolamine 0.8 nM, CHO membranes
T5 construct: expressed in transfected cells; host or cells: CHO cells (membranes)
T5 sequence (P08172 1-466): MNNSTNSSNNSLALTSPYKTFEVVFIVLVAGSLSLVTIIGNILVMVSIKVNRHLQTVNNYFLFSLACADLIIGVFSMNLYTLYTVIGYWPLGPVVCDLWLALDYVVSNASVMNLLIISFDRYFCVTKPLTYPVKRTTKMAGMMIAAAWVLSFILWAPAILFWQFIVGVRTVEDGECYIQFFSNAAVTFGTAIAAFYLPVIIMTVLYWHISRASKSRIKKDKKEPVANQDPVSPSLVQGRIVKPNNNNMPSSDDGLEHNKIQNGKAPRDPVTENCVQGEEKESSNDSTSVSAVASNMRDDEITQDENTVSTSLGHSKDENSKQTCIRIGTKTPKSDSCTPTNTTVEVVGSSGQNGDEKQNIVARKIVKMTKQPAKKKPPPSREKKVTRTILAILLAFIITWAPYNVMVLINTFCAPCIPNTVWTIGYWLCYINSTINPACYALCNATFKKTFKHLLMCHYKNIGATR
Method: as §3

[9] = target: T6, recombinant human M4 muscarinic acetylcholine receptor (Homo sapiens, UniProt P08173); test: Muscarinic receptor binding assay, M4; details: 3H-N-Methylscopolamine 0.8 nM, CHO membranes
T6 construct: expressed in transfected cells; host or cells: CHO cells (membranes)
T6 sequence (P08173 1-479): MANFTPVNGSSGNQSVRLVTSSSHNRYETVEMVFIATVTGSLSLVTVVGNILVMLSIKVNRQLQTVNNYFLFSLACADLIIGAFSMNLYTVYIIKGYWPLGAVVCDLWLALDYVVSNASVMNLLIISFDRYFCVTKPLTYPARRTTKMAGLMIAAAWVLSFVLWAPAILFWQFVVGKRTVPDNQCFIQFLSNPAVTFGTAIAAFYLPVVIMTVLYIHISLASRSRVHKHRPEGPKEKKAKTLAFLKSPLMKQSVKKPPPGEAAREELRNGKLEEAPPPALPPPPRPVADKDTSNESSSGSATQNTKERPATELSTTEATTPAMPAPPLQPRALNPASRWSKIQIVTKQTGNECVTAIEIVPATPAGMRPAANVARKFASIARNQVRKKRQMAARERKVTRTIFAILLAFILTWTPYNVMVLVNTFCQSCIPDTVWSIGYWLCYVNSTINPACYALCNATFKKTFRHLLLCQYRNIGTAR
Method: as §3

[10] = target: T7, recombinant human M5 muscarinic acetylcholine receptor (Homo sapiens, UniProt P08912); test: Muscarinic receptor binding assay, M5; details: 3H-N-Methylscopolamine 0.8 nM, CHO membranes
T7 construct: expressed in transfected cells; host or cells: CHO cells (membranes)
T7 sequence (P08912 1-532): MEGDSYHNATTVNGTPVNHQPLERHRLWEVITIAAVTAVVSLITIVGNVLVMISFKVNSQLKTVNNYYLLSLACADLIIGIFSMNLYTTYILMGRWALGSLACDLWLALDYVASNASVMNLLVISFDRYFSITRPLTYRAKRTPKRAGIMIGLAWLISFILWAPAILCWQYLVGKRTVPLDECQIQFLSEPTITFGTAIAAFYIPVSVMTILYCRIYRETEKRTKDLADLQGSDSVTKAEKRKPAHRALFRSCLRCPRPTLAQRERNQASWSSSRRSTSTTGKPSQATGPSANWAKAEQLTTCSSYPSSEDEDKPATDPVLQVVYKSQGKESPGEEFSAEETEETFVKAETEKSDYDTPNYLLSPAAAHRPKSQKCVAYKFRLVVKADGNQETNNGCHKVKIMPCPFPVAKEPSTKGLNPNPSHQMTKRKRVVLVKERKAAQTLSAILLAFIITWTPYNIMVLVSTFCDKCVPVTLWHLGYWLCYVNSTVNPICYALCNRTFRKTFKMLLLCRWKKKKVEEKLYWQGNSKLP
Method: as §3

[11] = pacing 0.1 Hz, read-out: Neuronal INa IC50 at 0.1 Hz
[12] = pacing 3 Hz, read-out: Neuronal INa IC50 at 3 Hz
[13] = pacing 0.1 Hz, read-out: Cardiac INa IC50 at 0.1 Hz
[14] = pacing 3 Hz, read-out: Cardiac INa IC50 at 3 Hz

T2 sequence (P25021 whole entry): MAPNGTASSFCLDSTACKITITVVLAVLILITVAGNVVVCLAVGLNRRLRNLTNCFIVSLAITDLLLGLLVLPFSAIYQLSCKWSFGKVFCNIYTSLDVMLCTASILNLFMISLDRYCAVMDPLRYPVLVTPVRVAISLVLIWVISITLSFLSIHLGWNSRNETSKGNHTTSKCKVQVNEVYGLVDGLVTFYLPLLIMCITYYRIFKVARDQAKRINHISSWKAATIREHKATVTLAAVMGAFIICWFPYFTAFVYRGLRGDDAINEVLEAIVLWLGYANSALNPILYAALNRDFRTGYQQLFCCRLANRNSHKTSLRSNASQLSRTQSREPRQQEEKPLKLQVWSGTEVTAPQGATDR
T1 sequence (P35367 whole entry): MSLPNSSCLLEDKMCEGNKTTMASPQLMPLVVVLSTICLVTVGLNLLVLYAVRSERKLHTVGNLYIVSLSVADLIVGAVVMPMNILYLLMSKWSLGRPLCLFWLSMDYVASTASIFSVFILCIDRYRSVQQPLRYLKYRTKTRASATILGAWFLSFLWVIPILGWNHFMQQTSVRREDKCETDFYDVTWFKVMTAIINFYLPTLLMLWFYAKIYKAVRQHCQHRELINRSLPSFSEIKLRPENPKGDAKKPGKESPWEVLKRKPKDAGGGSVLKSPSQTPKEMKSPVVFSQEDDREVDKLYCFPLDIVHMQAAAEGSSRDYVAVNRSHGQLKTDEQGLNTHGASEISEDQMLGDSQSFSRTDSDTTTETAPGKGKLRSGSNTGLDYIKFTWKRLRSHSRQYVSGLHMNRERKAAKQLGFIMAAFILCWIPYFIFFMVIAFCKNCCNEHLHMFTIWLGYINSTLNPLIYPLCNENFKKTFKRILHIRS
T3 sequence (Q9WTR4 1-597): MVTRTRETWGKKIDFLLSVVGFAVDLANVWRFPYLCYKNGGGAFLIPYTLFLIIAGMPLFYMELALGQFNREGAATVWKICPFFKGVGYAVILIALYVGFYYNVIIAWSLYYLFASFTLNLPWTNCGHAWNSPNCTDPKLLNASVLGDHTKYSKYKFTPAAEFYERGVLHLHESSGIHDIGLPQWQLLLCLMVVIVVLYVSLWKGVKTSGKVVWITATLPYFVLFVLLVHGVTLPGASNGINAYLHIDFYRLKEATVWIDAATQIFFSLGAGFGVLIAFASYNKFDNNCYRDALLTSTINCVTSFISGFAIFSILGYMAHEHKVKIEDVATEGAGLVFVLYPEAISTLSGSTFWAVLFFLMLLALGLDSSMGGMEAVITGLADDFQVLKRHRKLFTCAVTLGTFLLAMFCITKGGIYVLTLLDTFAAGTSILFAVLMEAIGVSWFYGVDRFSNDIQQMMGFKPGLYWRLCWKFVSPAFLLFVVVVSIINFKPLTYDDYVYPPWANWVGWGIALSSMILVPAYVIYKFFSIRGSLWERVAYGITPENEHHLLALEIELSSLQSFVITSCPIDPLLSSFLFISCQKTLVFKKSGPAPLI
Sequence of sodium channels (cardiac INa) in isolated human atrial myocytes (Q14524 whole entry): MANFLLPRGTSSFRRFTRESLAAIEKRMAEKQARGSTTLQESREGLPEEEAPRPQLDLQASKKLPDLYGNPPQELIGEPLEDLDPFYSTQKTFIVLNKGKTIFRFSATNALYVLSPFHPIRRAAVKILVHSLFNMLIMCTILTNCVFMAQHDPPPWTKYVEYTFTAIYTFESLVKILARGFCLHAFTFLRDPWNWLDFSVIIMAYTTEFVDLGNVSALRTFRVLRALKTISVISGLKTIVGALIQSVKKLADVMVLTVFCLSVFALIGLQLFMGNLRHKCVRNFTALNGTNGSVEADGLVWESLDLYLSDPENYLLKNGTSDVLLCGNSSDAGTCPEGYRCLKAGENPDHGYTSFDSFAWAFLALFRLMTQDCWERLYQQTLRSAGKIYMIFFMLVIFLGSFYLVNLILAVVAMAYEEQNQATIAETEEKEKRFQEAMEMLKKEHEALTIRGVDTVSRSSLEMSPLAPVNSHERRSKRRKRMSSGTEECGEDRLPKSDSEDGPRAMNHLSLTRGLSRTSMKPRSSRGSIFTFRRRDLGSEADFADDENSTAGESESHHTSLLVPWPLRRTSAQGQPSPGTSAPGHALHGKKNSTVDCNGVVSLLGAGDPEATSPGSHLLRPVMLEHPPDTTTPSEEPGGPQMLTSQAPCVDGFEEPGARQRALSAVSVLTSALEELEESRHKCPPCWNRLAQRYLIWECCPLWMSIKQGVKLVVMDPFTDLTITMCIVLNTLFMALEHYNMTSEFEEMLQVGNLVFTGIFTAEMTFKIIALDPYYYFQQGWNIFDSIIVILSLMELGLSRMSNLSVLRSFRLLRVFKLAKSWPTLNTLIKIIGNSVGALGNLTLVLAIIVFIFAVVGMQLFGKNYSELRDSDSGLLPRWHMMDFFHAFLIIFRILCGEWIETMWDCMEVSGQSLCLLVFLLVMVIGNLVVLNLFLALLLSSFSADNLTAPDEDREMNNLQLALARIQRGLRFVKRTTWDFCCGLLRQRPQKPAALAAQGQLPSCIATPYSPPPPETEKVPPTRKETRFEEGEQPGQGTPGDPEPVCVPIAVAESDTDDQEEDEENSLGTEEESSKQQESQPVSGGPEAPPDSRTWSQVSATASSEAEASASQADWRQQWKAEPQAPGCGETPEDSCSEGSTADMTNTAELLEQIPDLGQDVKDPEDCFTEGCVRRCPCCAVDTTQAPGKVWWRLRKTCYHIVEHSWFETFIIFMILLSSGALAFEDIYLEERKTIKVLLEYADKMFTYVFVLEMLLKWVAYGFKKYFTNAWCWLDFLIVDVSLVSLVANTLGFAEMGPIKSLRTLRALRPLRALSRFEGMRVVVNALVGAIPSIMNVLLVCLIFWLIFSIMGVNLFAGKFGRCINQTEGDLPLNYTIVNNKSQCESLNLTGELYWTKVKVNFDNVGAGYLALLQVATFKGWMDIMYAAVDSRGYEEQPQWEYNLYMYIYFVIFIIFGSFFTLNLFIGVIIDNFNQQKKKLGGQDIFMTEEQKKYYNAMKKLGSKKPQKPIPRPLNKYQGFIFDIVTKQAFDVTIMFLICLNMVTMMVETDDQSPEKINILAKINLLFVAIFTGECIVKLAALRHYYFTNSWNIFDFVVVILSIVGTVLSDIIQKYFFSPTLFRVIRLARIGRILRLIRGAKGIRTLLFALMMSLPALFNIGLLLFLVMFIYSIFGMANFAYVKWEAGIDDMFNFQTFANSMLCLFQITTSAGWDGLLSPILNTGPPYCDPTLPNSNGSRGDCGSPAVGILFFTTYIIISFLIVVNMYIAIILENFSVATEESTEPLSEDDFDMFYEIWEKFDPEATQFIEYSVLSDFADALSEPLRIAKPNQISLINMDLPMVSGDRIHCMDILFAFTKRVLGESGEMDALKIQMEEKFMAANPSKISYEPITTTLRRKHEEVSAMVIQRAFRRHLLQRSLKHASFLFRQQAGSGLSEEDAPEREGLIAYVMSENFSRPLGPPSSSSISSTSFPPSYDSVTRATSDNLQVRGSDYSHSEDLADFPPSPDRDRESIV

In the case of COCCOCCOCCN(C)CCC=C1c2ccccc2CCc2ccccc21 [mPEG3-N-Amitriptyline], the “H1:H2 Selectivity” value [1] is reported as 1663, the “H1 Receptor Fold-change over parent” value [1] is reported as 6 and the Ki [1] is reported as 0.00181 µM. The “H2 Receptor Fold-change over parent” value [2] was 14 and the Ki [2] was 3.01 µM.
With COCCOCCOCCOCCOCCOCCOCCNCCCN1c2ccccc2CCc2ccccc21 [mPEG7-NH-Desipramine, N-mPEG7-3-(10,11-dihydro-dibenzo[b,f]azepin-5-yl)-propylamine] the logP [3] was 2.5, the pKa [3] was 8.94 and the “Fold Change Relative to Parent” value [4] was 2972. It also gave a Ki [4] of 5.92 µM.
In the case of NC(=O)N1c2ccccc2C=Cc2ccccc21 [Carbamazepine, reference compound], the IC50 [5, 11] is reported as 102 µM, the IC50 [5, 12] is reported as 114 µM and the “Cardiac INa Fold Change Relative to Parent, 0.1 Hz” value ([6]; pacing 0.1 Hz, relative to carbamazepine) is reported as 1.0. For the same compound, the IC50 [6, 13] was 160 µM, the “Cardiac INa Fold Change Relative to Parent, 3 Hz” value ([6]; pacing 3 Hz, relative to carbamazepine) was 1.0 and the IC50 [6, 14] was 145 µM.
With NC1=N[C@H](O)[C@H]2[C@H]3O[C@]4(O)O[C@@H]([C@@H](O)[C@@]2(N1)[C@@H]4O)[C@]3(O)CO [TTX, tetrodotoxin, reference compound] the “reduction of INa” value [5] was 93.2% and 96.8% and the “reduction of INa” value [6] was 47.2% and 56.8%.
For COCCOCCOCCNC(=O)N1c2ccccc2C=Cc2ccccc21 [mPEG3-N-Carbamazepine], the IC50 [5, 11] was 142 µM, the IC50 [5, 12] was 578 µM and the “Cardiac INa Fold Change Relative to Parent, 0.1 Hz” value [6] was 2.8. For the same compound, the “Cardiac INa Fold Change Relative to Parent, 3 Hz” value [6] was 1.5, the IC50 [6, 13] was 460 µM and the IC50 [6, 14] was 214 µM.
For COCCOCCOCCNCCCN1c2ccccc2CCc2ccccc21 [mPEG3-NH-Desipramine, N-mPEG3-3-(10,11-dihydro-dibenzo[b,f]azepin-5-yl)-propylamine], the logP [3] was 3.14, the pKa [3] was 8.96 and the “Fold Change Relative to Parent” value [4] was 3336. For the same compound, the Ki [4] was 6.65 µM.
With COCCOCCOCCOCCOCCOCCN(C)CCC=C1c2ccccc2CCc2ccccc21 [mPEG6-N-Amitriptyline] the Ki [7] was 0.869 µM, the Ki [8] was 1.17 µM and the “H1 Receptor Fold-change over parent” value [1] was 19. The Ki [1] was 0.00613 µM.
With COCCOCCOCCOCCOCCNC(=O)N1c2ccccc2C=Cc2ccccc21 [mPEG5-N-Carbamazepine] the “Cardiac INa Fold Change Relative to Parent, 0.1 Hz” value [6] was 0.4 and the “Cardiac INa Fold Change Relative to Parent, 3 Hz” value [6] was 0.4.
In the case of CN(C)CCC=C1c2ccccc2CCc2ccccc21 [Amitriptyline], the Ki [9] is reported as 0.0239 µM and the Ki [10] is reported as 0.017 µM.
With COCCOCCOCCOCCOCCOCCOCCN(C)CCC=C1c2ccccc2CCc2ccccc21 [mPEG7-N-Amitriptyline] the Ki [8] was 1.14 µM, the “H1 Receptor Fold-change over parent” value [1] was 23 and the Ki [1] was 0.00744 µM.
In the case of COCCOCCOCCOCCOCCN(C)CCCN1c2ccccc2CCc2ccccc21 [mPEG5-N-Desipramine], the pKa [3] is reported as 8.55.
For COCCOCCOCCOCCOCCN(C)CCC=C1c2ccccc2CCc2ccccc21 [mPEG5-N-Amitriptyline], the “H1:H2 Selectivity” value [1] was 3670, the “H1 Receptor Fold-change over parent” value [1] was 11 and the Ki [1] was 0.00357 µM. For the same compound, the “H2 Receptor Fold-change over parent” value [2] was 63 and the Ki [2] was 13.1 µM.
COCCOCCOCCOCCOCCOCCOCCOCCN(C)CCCN1c2ccccc2CCc2ccccc21 [mPEG8-N-Desipramine] showed a pKa [3] of 8.66.
COCCOCCOCCN(C)CCCN1c2ccccc2CCc2ccccc21 [mPEG3-N-Desipramine] gave a pKa [3] of 8.47.
In the case of COCCOCCOCCOCCOCCOCCOCCNC(=O)N1c2ccccc2C=Cc2ccccc21 [mPEG7-N-Carbamazepine], the IC50 [5, 11] is reported as 144 µM, the IC50 [5, 12] is reported as 163 µM and the “Cardiac INa Fold Change Relative to Parent, 0.1 Hz” value [6] is reported as 2.4. For the same compound, the “Cardiac INa Fold Change Relative to Parent, 3 Hz” value [6] was 1.2, the IC50 [6, 13] was 380 µM and the IC50 [6, 14] was 169 µM.
